The results in this text go back to article PMC6467995, “Phosphoregulation of the oncogenic protein regulator of cytokinesis 1 (PRC1) by the atypical CDK16/CCNY complex” (Experimental & Molecular Medicine, 2019).

Assay type in all cases: biochemical
In test [1] the target is T1, CDK16 (WT-GST-CDK16) (Homo sapiens, UniProt Q00536).
T1 construct: N-terminal GST fusion, full-length, purified from E. coli; with CCNY
Briefly: in vitro kinase assay, thiophosphate transfer to CCNY.

The target in test [2] is T1, CDK16 (WT-GST-CDK16). Briefly: in vitro kinase assay with [γ-32P]-ATP, dose response.
The target in test [3] is T2, CDK16 (analog-sensitive, AS-GST-CDK16) (Homo sapiens, UniProt Q00536, F240G).
T2 construct: N-terminal GST fusion, full-length, purified from E. coli; with CCNY
Described as above.

The structures appear in SMILES notation.

T1 sequence (Q00536 whole entry, the tested form may be a part): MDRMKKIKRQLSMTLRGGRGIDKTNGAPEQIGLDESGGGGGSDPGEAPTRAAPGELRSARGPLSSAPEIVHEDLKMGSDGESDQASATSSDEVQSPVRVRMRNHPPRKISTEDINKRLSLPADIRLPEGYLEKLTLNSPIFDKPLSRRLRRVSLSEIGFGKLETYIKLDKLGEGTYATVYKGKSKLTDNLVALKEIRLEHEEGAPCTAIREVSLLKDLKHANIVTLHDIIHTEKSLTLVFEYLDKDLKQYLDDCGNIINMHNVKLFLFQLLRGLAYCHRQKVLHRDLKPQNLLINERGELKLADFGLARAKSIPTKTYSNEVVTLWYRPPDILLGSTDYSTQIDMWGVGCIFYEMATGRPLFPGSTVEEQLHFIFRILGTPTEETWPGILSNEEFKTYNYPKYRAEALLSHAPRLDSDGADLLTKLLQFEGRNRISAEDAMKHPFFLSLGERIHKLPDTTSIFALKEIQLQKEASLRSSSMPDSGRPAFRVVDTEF
T1 sequence (Q8ND76 2-341 partner): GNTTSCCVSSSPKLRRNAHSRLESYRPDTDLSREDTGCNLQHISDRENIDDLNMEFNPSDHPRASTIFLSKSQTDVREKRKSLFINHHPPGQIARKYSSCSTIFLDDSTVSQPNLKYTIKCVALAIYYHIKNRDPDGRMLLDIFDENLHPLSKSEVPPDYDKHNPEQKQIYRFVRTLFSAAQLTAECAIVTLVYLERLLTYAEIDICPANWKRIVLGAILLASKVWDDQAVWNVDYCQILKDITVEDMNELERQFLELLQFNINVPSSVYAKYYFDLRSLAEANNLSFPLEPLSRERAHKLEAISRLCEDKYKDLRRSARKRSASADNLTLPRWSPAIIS
T2 sequence (Q00536 whole entry F240G, the tested form may be a part): as the sequence (Q00536 whole entry, the tested form may be a part) above, with F240G counted along it
T2 sequence (Q8ND76 2-341 partner): as the sequence (Q8ND76 2-341 partner) above

On to `Nc1ncnc2c1ncn2[C@@H]1O[C@H](CO[P@](=O)(O)O[P@](=O)(O)O[P@@](=O)(O)S)[C@@H](O)[C@H]1O` [ATPγS], for which the “in vitro kinase assay, thiophosphate transfer to CCNY” value on CDK16 (WT-GST-CDK16) [1] is given as “WT-CDK16 used ATPγS to phosphorylate GST-CCNY, it could not use the N^6-modified bulky forms”.

On to `Cc1cccc(Cc2nn(C(C)(C)C)c3ncnc(N)c23)c1` [3MBPP1, 1-(tert-butyl)-3-(3-methylbenzyl)-1H-pyrazolo[3,4-d]pyrimidin-4-amine], for which the IC50 is 4400 nM against CDK16 (WT-GST-CDK16) [2] and 1230 nM in test [3].
